Source: ChEMBL document CHEMBL1909569 (Bioorg Med Chem Lett, 2011)
In brackets after ≈: the same amount, converted by molar mass.

What was measured:
[1] = tested on: Mycobacterium tuberculosis; test: Antimicrobial activity against replicating Mycobacterium tuberculosis after 8 days by micro plate alamar blue assay; format: functional; details: 192 h
Escherichia coli [2] = test: Antimicrobial activity against wild type Escherichia coli TG2 after 16 to 20 hrs; format: functional
Escherichia coli [3] = test: Antimicrobial activity against wild type Escherichia coli DH5[alpha] after 16 to 20 hrs; format: functional
[4] = tested on: Mycobacterium tuberculosis; test: Antimicrobial activity against non-replicating Mycobacterium tuberculosis after 11 days by luminescence based low oxygen recovery assay; format: functional; details: 264 h
[5] = target: T1, DNA-directed RNA polymerase subunit beta (Mycobacterium tuberculosis, UniProt P9WGY9); test: (§1) Inhibition of wild type Mycobacterium tuberculosis RNA polymerase after 10 mins using ribo green staining by rolling circle transcription assay
T1 sequence (P9WGY9 whole entry): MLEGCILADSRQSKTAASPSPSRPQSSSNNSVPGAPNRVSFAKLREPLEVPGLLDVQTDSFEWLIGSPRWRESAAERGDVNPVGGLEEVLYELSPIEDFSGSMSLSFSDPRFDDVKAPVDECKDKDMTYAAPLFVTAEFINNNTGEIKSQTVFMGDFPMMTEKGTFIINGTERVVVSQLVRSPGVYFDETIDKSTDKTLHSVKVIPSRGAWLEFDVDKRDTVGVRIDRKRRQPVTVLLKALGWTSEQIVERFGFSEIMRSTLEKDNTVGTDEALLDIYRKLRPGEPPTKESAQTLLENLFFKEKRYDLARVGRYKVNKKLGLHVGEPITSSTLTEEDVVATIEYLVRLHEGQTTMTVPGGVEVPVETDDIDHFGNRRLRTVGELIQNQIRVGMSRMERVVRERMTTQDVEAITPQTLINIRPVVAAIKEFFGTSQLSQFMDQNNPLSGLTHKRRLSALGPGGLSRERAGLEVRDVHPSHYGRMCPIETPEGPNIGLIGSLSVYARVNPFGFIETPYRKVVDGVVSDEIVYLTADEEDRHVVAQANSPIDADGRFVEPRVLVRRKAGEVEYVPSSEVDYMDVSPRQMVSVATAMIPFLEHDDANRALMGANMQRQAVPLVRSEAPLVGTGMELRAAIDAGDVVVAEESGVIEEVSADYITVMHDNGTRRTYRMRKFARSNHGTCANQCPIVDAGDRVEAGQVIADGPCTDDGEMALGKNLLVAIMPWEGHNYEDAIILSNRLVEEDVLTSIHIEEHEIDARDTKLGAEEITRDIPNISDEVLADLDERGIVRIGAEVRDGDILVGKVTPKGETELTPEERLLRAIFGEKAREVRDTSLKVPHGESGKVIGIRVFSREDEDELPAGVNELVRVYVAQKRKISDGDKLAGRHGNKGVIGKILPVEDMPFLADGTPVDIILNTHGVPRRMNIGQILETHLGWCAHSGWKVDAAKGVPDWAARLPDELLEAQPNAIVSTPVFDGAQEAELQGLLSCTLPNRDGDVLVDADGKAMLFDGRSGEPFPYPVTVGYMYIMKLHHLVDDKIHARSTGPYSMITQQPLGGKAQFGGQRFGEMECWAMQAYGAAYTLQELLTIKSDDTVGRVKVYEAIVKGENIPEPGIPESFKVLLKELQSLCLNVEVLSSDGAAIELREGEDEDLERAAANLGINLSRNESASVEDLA

[6] = target: T2, DNA-directed RNA polymerase subunit beta (Mycobacterium tuberculosis) (UniProt P9WGY9); test: as §1; parameters: unit not given here
T2 sequence (whole entry): T1 sequence (P9WGY9 whole entry)

Escherichia coli [7] = test: Antimicrobial activity against Escherichia coli EC2880 mutant after 16 to 20 hrs; format: functional
[8] = target: T3, PXR (nuclear receptor subfamily 1 group I member 2) (Homo sapiens, UniProt O75469); test: (§2) Activation of human PXR in DPX2 cells after 24 hrs by microplate reader relative to control; format: ADME, cell-based; details: human, DPX2 cells; read-out: FC
T3 sequence (O75469 whole entry): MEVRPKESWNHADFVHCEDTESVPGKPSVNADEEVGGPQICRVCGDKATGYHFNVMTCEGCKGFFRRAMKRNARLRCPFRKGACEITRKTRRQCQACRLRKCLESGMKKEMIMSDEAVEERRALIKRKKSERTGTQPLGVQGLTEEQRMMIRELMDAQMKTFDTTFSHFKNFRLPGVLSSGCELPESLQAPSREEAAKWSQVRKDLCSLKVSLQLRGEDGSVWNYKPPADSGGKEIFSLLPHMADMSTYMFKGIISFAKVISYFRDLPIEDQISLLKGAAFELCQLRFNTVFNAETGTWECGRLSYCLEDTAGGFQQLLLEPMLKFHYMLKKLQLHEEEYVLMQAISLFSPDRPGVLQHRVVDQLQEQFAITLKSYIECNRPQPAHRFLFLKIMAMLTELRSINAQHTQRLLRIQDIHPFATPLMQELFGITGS

[9] = target: T4, Nuclear receptor subfamily 1 group I member 2 (Homo sapiens, UniProt O75469); test: as §2; format: ADME, cell-based
T4 sequence (O75469 whole entry): T3 sequence (O75469 whole entry)

SMILES | MIC90 [1] | MIC90 (Escherichia coli [2]) | MIC90 (Escherichia coli [3]) | MIC90 [4] | IC50 [5] | logIC50 [6] | MIC90 (Escherichia coli [7]) | fold induction at 24 h [8] | EC50 [9]
CO[C@H]1/C=C/O[C@@]2(C)Oc3c(C)c(O)c4c(c3C2=O)C(=O)C(/C=N/N2CCN(C)CC2)=C(NC(=O)/C(C)=C\C=C\[C@H](C)[C@H](O)[C@@H](C)[C@@H](O)[C@@H](C)[C@H](OC(C)=O)[C@@H]1C)C4=O [RIFAMPIN S] | 0.07 µM (≈ 0.0575 µg/mL) | 12.5 µM (≈ 10.3 µg/mL) | 25 µM (≈ 20.5 µg/mL) | 0.5 µM (≈ 0.41 µg/mL) | 13 nM | -1.88 | 0.1 µM (≈ 0.0821 µg/mL) |  | 
CO[C@H]1/C=C/O[C@@]2(C)Oc3c(C)c(N)c4c(c3C2=O)C(=O)C=C(NC(=O)/C(C)=C\C=C\[C@H](C)[C@H](O)[C@@H](C)[C@@H](O)[C@@H](C)[C@H](OC(C)=O)[C@@H]1C)C4=O | 1.41 µM (≈ 0.98 µg/mL) | > 100 µM | > 100 µM | 22.2 µM (≈ 15.4 µg/mL) | 4400 nM | 0.644 | 12.5 µM (≈ 8.68 µg/mL) |  | 
CO[C@H]1/C=C/O[C@@]2(C)Oc3c(c4c5c(nn(CCO)c5c3C)C(=C(/C=N/N3CCN(C)CC3)C4=O)NC(=O)/C(C)=C\C=C\[C@H](C)[C@H](O)[C@@H](C)[C@@H](O)[C@@H](C)[C@H](OC(C)=O)[C@@H]1C)C2=O | 3.9 µM (≈ 3.36 µg/mL) | > 100 µM | > 100 µM | > 18.6 µM | 139 nM | -0.856 | > 12.5 µM |  | 
CO[C@H]1/C=C/O[C@@]2(C)Oc3c(C)c(O)c4c(O)c(c(/C=N/N5CCN(C)CC5)c(O)c4c3C2=O)NC(=O)/C(C)=C\C=C\[C@H](C)[C@H](O)[C@@H](C)[C@@H](O)[C@@H](C)[C@H](OC(C)=O)[C@@H]1C [RIFAMPIN] | 0.13 µM (≈ 0.107 µg/mL) | 12.5 µM (≈ 10.3 µg/mL) | 12.5 µM (≈ 10.3 µg/mL) | 1.9 µM (≈ 1.56 µg/mL) |  |  | 0.1 µM (≈ 0.0823 µg/mL) |  | 
CO[C@H]1/C=C/O[C@@]2(C)Oc3c(C)c(SC)c4c(c3C2=O)C(=O)C=C(NC(=O)/C(C)=C\C=C\[C@H](C)[C@H](O)[C@@H](C)[C@@H](O)[C@@H](C)[C@H](OC(C)=O)[C@@H]1C)C4=O | 2 µM (≈ 1.45 µg/mL) | > 100 µM | > 100 µM | 1.3 µM (≈ 0.944 µg/mL) | 15 nM | -1.82 | > 12.5 µM |  | 
CO[C@H]1/C=C/O[C@@]2(C)Oc3c(C)c(N(C)C)c4c(c3C2=O)C(=O)C=C(NC(=O)/C(C)=C\C=C\[C@H](C)[C@H](O)[C@@H](C)[C@@H](O)[C@@H](C)[C@H](OC(C)=O)[C@@H]1C)C4=O | 1.8 µM (≈ 1.3 µg/mL) | > 100 µM | > 100 µM | 5.4 µM (≈ 3.9 µg/mL) | 503 nM | -0.298 | 12.5 µM (≈ 9.04 µg/mL) |  | 
CNc1c(C)c2c3c4c1C(=O)C(=C(/C=N/N1CCN(C)CC1)C4=O)NC(=O)/C(C)=C\C=C\[C@H](C)[C@H](O)[C@@H](C)[C@@H](O)[C@@H](C)[C@H](OC(C)=O)[C@H](C)[C@@H](OC)/C=C/O[C@@](C)(O2)C3=O | 3.64 µM (≈ 3.04 µg/mL) |  |  | > 19.2 µM |  |  |  | 6.9 | 2100 nM
CO[C@H]1/C=C/O[C@@]2(C)Oc3c(C)c(NC4CCCCCC4)c4c(c3C2=O)C(=O)C=C(NC(=O)/C(C)=C\C=C\[C@H](C)[C@H](O)[C@@H](C)[C@@H](O)[C@@H](C)[C@H](OC(C)=O)[C@@H]1C)C4=O | 2.2 µM (≈ 1.74 µg/mL) | > 100 µM | > 100 µM | > 20.2 µM | 15400 nM | 1.19 | > 12.5 µM |  | 
CNc1c(C)c2c3c4c(O)c(/C=N/N5CCN(C)CC5)c(c(O)c14)NC(=O)/C(C)=C\C=C\[C@H](C)[C@H](O)[C@@H](C)[C@@H](O)[C@@H](C)[C@H](OC(C)=O)[C@H](C)[C@@H](OC)/C=C/O[C@@](C)(O2)C3=O | 4 µM (≈ 3.34 µg/mL) |  |  | > 19.1 µM |  |  |  | 8.9 | 4100 nM
CO[C@H]1/C=C/O[C@@]2(C)Oc3c(C)c(O)c4c(c3C2=O)C(=O)C=C(NC(=O)/C(C)=C\C=C\[C@H](C)[C@H](O)[C@@H](C)[C@@H](O)[C@@H](C)[C@H](OC(C)=O)[C@@H]1C)C4=O [RIFAMYCIN S] | 0.03 µM (≈ 0.0209 µg/mL) | 100 µM (≈ 69.6 µg/mL) | > 100 µM | 0.4 µM (≈ 0.278 µg/mL) | < 10 nM |  | 0.78 µM (≈ 0.543 µg/mL) |  | 
CO[C@H]1/C=C/O[C@@]2(C)Oc3c(C)c(OS(=O)(=O)c4ccc(C)cc4)c4c(c3C2=O)C(=O)C(/C=N/N2CCN(C)CC2)=C(NC(=O)/C(C)=C\C=C\[C@H](C)[C@H](O)[C@@H](C)[C@@H](O)[C@@H](C)[C@H](OC(C)=O)[C@@H]1C)C4=O |  | > 100 µM | > 100 µM |  |  |  |  |  | 
CO[C@H]1/C=C/O[C@@]2(C)Oc3c(C)c(NCc4ccccc4)c4c(O)c(c(/C=N/N5CCN(C)CC5)c(O)c4c3C2=O)NC(=O)/C(C)=C\C=C\[C@H](C)[C@H](O)[C@@H](C)[C@@H](O)[C@@H](C)[C@H](OC(C)=O)[C@@H]1C | > 4.4 µM |  |  | > 17.5 µM |  |  |  |  | 
CO[C@H]1/C=C/O[C@@]2(C)Oc3c(c4c5c(nn(CCO)c5c3C)C(=CC4=O)NC(=O)/C(C)=C\C=C\[C@H](C)[C@H](O)[C@@H](C)[C@@H](O)[C@@H](C)[C@H](OC(C)=O)[C@@H]1C)C2=O | > 5.4 µM |  |  | > 21.7 µM |  |  |  |  | 
CO[C@H]1/C=C/O[C@@]2(C)Oc3c(C)c(NCCO)c4c(O)c(c(/C=N/N5CCN(C)CC5)c(O)c4c3C2=O)NC(=O)/C(C)=C\C=C\[C@H](C)[C@H](O)[C@@H](C)[C@@H](O)[C@@H](C)[C@H](OC(C)=O)[C@@H]1C | > 4.6 µM |  |  | > 18.5 µM |  |  |  |  | 
CONc1c(C)c2c3c4c1C(=O)C(=CC4=O)NC(=O)/C(C)=C\C=C\[C@H](C)[C@H](O)[C@@H](C)[C@@H](O)[C@@H](C)[C@H](OC(C)=O)[C@H](C)[C@@H](OC)/C=C/O[C@@](C)(O2)C3=O | 3.8 µM (≈ 2.75 µg/mL) |  |  | 12.5 µM (≈ 9.06 µg/mL) |  |  |  |  | 
CO[C@H]1/C=C/O[C@@]2(C)Oc3c(C)c(NC4CCCCCC4)c4c(O)c(c(/C=N/N5CCN(C)CC5)c(O)c4c3C2=O)NC(=O)/C(C)=C\C=C\[C@H](C)[C@H](O)[C@@H](C)[C@@H](O)[C@@H](C)[C@H](OC(C)=O)[C@@H]1C | 3.8 µM (≈ 3.49 µg/mL) |  |  | > 17.4 µM |  |  |  |  | 
CCNc1c(C)c2c3c4c(O)c(/C=N/N5CCN(C)CC5)c(c(O)c14)NC(=O)/C(C)=C\C=C\[C@H](C)[C@H](O)[C@@H](C)[C@@H](O)[C@@H](C)[C@H](OC(C)=O)[C@H](C)[C@@H](OC)/C=C/O[C@@](C)(O2)C3=O | > 4.7 µM |  |  | > 18.8 µM |  |  |  |  | 
